Experimental data as given in US20120225417A1, “Methods, Compositions and Kits for the Evaluation and Preservation of Sperm” (I'Alliance Boviteq Inc., priority 2011, published 2012).

Assays:
Type in all cases: biochemical
[1] = test system: 3′-5′ cAMP-PDE activity in bovine spermatozoa; assay: 3′-5′ cAMP-PDE assay with family-specific PDE inhibitors in bovine spermatozoa; details: for Percentage of family specific sensitive PDE activity, 3 h Egg yolk: bovine spermatozoa after 3 h in egg yolk based cryoprotectant at 18° C.; for Percentage of family specific sensitive PDE activity, 3 h Liquid semen: bovine spermatozoa after 3 h in liquid semen extender at 18° C.; for Percentage of family specific sensitive PDE activity, 3 h 4° C.: bovine spermatozoa after 3 h in seminal plasma at 4° C.; for Percentage of family specific sensitive PDE activity, 3 h 18° C.: bovine spermatozoa after 3 h in seminal plasma at 18° C.; for Percentage of family specific sensitive PDE activity, Fresh: bovine spermatozoa rapidly after ejaculation (0 h); for Percentage of total PDE activity sensitive to the inhibitor: cilostamide 10 μM, rolipram 10 μM, papaverine 400 nM (FIG. 12B); for Percentage of sensitive PDE activity, Cryo (B): cryopreserved bovine spermatozoa; for Percentage of sensitive PDE activity, Cryo (B) / Percentage of sensitive PDE activity, Fresh (A): Cil 10 μM, Rol 10 μM, Papa 400 nM; for Percentage of sensitive PDE activity, Fresh (A): freshly ejaculated bovine spermatozoa
Experimental: The semen was obtained from different Holstein bulls. The fresh ejaculated semen was kept in an insulated thermos flask, at 18° C., during transportation to the laboratory and processed within 3 hours after collection. The cryopreserved semen was obtained at the Centre d'Insémination […] du Québec (CIAQ) […]. The cryopreserved straws of semen were prepared according to CIAQ procedures. […] After cutting one end of the straw the semen was collected in a 15 ml falcon while cutting the other end. From this point fresh and cryopreserved semen were processed similarly. Approximately 50 μL of the semen was added to 5 mL of Talp-BSA medium in a 15 mL falcon tube to wash the spermatozoa. After centrifugation (280×g, 10 min, room temperature), the remaining pellet of approximately 100 μL was resuspended in Talp-BSA medium (500 μl for the fresh and 200 μl for two straws) to reach a concentration of 1×10^6 cells/10 μL. The samples were then vortex-agitated for 30 sec and kept on the ice until ready to run the assay. The concentration of sperm cells was measured according to hemacytometer method. The cAMP enzymatic assay (PDE assay) was conducted as previously described ([…]. et al., (2006). […] J. et al., (1979). Adv Cyclic Nucleotide Res 10, 69-92) with minor modifications. […] Measurements were also performed in the presence of PDE inhibitors: […] Cilostamide and Rolipram were purchased from Biomol. […] Each PDE assay was performed in triplicate for each experiment and each experiment was repeated at least three times. As described ([…]. et al., (2009). […] IBMX-sensitive PDE5 and PDE6 and IBMX-insensitive PDE9 activities are absent from these groups because cGMP is the specific substrate and then are not detected in the cAMP-PDE assay. […] J Dairy Sci 92, 3757-3765; […]., et al. (2007). Endocrinology 148, 1858-1867; Siuciak, J. A. et al., (2006). Neuropharmacology 51, 386-396).

[2] = test system: 3′-5′ cAMP-PDE activity in human seminal plasma; assay: 3′-5′ cAMP-PDE assay with family-specific PDE inhibitors in human seminal plasma; details: fresh human seminal plasma; Rolipram 10 μM, Papaverine 400 nM (FIG. 19)
Experimental: A certain amount of complete ejaculate was kept to isolate spermatozoa from seminal plasma. This portion was centrifuged at 400×g during 10 minutes at room temperature to gently pull down spermatozoa. Supernatant was transferred and centrifuged again at 6 000×g at 4° C. during 20 minutes to pull down any remaining spermatozoa. Supernatant was then transferred and centrifuged at 6 000×g at 4° C. during 20 minutes to remove any remaining debris. SP samples were kept on ice until used for PDE assay and stored at -80° C. for further characterization. The cAMP enzymatic assay (PDE assay) was conducted as previously described ([…]. et al., (2006). BMC developmental biology 6, 47). […] J. et al., (1979). Adv Cyclic Nucleotide Res 10, 69-92) with minor modifications. […] Measurements were also performed in the presence of PDE inhibitors: […] Cilostamide and Rolipram were purchased from Biomol. […] Each PDE assay was performed in triplicate for each experiment and each experiment was repeated at least three times. As described ([…]. et al., (2009). […] IBMX-sensitive PDE5 and PDE6 and IBMX-insensitive PDE9 activities are absent from these groups because cGMP is the specific substrate and then are not detected in the cAMP-PDE assay. […] J Dairy Sci 92, 3757-3765; […]., et al. (2007). Endocrinology 148, 1858-1867; Siuciak, J. A. et al., (2006). Neuropharmacology 51, 386-396).

[3] = test system: 3′-5′ cAMP-PDE activity in bovine testis, caput, cauda and seminal vesicles homogenates; assay: 3′-5′ cAMP-PDE assay in bovine testis, caput, cauda and seminal vesicles homogenates; details: Rol 10 μM, Papa 400 nM (FIG. 3)
Experimental: After thoroughly vortex-agitating for about one minute, samples were centrifuged at 10 000×g for 4 minutes at room temperature. Supernatant fluid was collected and diluted in different volumes of hypotonic buffer depending on the tissue. Testis, caput and cauda homogenates were diluted in 1 mL of hypotonic buffer while seminal vesicle homogenates were diluted in 2 mL of hypotonic buffer. Homogenates were kept on ice until subjected to PDE assay. The cAMP enzymatic assay (PDE assay) was conducted as previously described ([…]. et al., (2006). BMC developmental biology 6, 47). […] J. et al., (1979). Adv Cyclic Nucleotide Res 10, 69-92) with minor modifications. […] Measurements were also performed in the presence of PDE inhibitors: […] Cilostamide and Rolipram were purchased from Biomol. […] Each PDE assay was performed in triplicate for each experiment and each experiment was repeated at least three times. As described ([…]. et al., (2009). […] IBMX-sensitive PDE5 and PDE6 and IBMX-insensitive PDE9 activities are absent from these groups because cGMP is the specific substrate and then are not detected in the cAMP-PDE assay. […] J Dairy Sci 92, 3757-3765; […]., et al. (2007). Endocrinology 148, 1858-1867; Siuciak, J. A. et al., (2006). Neuropharmacology 51, 386-396).

[4] = bovine spermatozoa, 1 μM cAMP, IBMX 1 mM

Structure (SMILES) | Increase of the inhibited proportion of cAMP-PDE activity relative to papaverine ([1]; freshly ejaculated bovine spermatozoa (FIG. 21)) | Percentage of family specific sensitive PDE activity, 3 h Egg yolk [1] | Percentage of family specific sensitive PDE activity, 3 h Liquid semen [1] | Percentage of family specific sensitive PDE activity, 3 h 4° C. [1] | Percentage of family specific sensitive PDE activity, 3 h 18° C. [1] | Percentage of family specific sensitive PDE activity, Fresh [1] | Percentage of total PDE activity sensitive to the inhibitor [1, 4] | Percentage of sensitive PDE activity, Cryo (B) ([1]; IBMX 1 mM) | Percentage of sensitive PDE activity, Fresh (A) ([1]; IBMX 1 mM) | Percentage of total PDE activity that is IBMX-insensitive (PDE8) [1, 4] | Inhibitor-sensitive PDE activity in human seminal plasma (in words) [2] | Inhibitor-sensitive PDE activity in bovine male reproductive tissues (in words) [3]
OCCN(CCO)c1nc(N2CCCCC2)c2nc(N(CCO)CCO)nc(N3CCCCC3)c2n1 [dipyridamol, dipyridamole] | 10% |  |  |  |  |  |  |  |  |  |  | 
CN(C(=O)CCCOc1ccc2[nH]c(=O)ccc2c1)C1CCCCC1 [Cilostamide] |  | 24% | 7% | 11% | 20% | 13% | 9% | 5% | 14% |  |  | 
CC(C)Cn1c(=O)n(C)c(=O)c2[nH]cnc21 [IBMX, 3-isobutyl-1-methylxanthine] |  | 96% | 96% | 96% | 95% | 95% | 92% | 96% | 94% | 8% |  | 
COc1ccc(C2CNC(=O)C2)cc1OC1CCCC1 (stereo not shown) [Rolipram] |  | 18% | 11% | 12% | 9% | 11% | 11% | 10% | 12% |  | high | highly functional
